Test results published in PMC3602653, “The brain slice method for studying drug distribution in the CNS” (Fluids and Barriers of the CNS, 2013).

What was measured:
[1] = cited from earlier work
[2] = Brain slice method, unbound volume of distribution in the brain (rat); type: in vitro ADME; settings: SD rat brain slices, 5 h incubation at 37°C; mean (standard deviation)
Source text: (§1) Drug-naïve male Sprague–Dawley 250–300 g rats and Naval Medical Research Institute (NMRI) 25–30 g mice were used (Taconic, Lille Skensved, Denmark).
(§2) The composition of artificial cerebrospinal fluid or extracellular fluid (aECF) is crucial. […] Ascorbic acid is used as a natural free-radical scavenger to protect the cell membranes from lipid peroxidation and the brain slices from swelling [21].
(§3) When deciding on the compounds of each cassette, the pKa values of the compounds should be taken into account. Because high concentrations of weak bases can increase the pH of the acidic intracellular compartments, the extent of lysosomal trapping of a weak base could be affected by the existence of another weak base. […] Consequently, it is recommended that the final aECF concentration of each studied compound in the cassette should be 100–200 nM and the total concentration of the studied compounds should not exceed 1 μM [18].
(§4) Drug-naïve rats/mice are anesthetized with inhalation anesthesia using 5% isoflurane. When deep anesthesia is reached, up to 10 ml of blood (rats) is collected intracardially. The animal is then decapitated and the skull quickly opened. The isolated brain is immediately placed into blank ice-cold aECF saturated with oxygen. In our experience, the brains should be sliced within 15–20 minutes of harvesting to retain their viability.
(§5) After discarding the first one or two brain slices, 6 (rat brain) or 10 (mouse brain) consecutive 300 μm brain slices are cut on a coronal plane, starting approximately 1.7 mm anterior to the bregma (rostral striatum).
(§6) The incubation-equilibration process is started by gently transferring the 6 (rat) or 10 (mouse) brain slices from the storage beaker (using a micro double-ended spatula) into one 45 mm high, 80 mm diameter, flat-bottomed glass beaker (Duran Group, VWR, Sweden) containing 15 ml (rat) or 10 ml (mouse) of the aECF containing the selection of drugs to be investigated (Figure 1C). The beaker is then filled with humidified 100% oxygen over the aECF and covered with a custom-fabricated lid (Figure 1D) composed of a Teflon fluorinated ethylene-propylene (FEP) film (50 Å, 12.7 μm thick; DuPont, Katco Ltd, UK) as designed by Potter and DeMarse with minor modifications [23]. A “blank” beaker is also incubated in parallel to check stability of the compounds added into the buffer.
(§7) Finally, the beaker is placed inside the small plastic box in the incubated shaker (e.g. MaxQ4450 Thermo Fisher Scientific, NinoLab, Sweden) for 5 h at 37°C (Figure 1E). Control of the temperature by an external thermometer is recommended. A rotation speed of 45 rpm and oxygen flow of about 75–80 ml per minute through a glass frit apparatus appear sufficient.
(§8) Since the unbound drug concentration in the brain slice interstitial fluid at equilibrium is taken to be equal to the drug concentration in the aECF in the beaker, the presence of any minor debris from the brain tissue should be avoided in the sampled aECF after the 5 h incubation. To achieve this, the beaker needs to sit still for 5 minutes after finishing the incubation before sampling the aECF.

[3] = cited from earlier work; remark: listed apart in the source
[4] = Brain slice method, unbound volume of distribution in the brain (mouse); settings: NMRI mouse brain slices, 5 h incubation at 37°C; mean (standard deviation)
Source text: as §1, §2, §3, §4, §5, §6, §7, §8

[5] = Unbound brain-to-plasma concentration ratio (Kp,uu,brain), BBB net flux, from Kp,brain, Vu,brain and fu,plasma; settings: Kp,brain corrected for brain tissue uptake (Vu,brain from brain slice method) and plasma protein binding (fu,plasma)
Source text: It has been proposed by Fridén et al. that in vitro determination of Vu,brain in combination with in vivo determination of the total brain-to-plasma concentration ratio (Kp,brain) and in vitro determination of the fraction of unbound drug in plasma (fu,plasma) would allow rapid evaluation of unbound brain-to-plasma concentration ratio (Kp,uu,brain) (Figure 2). Moreover, combining Vu,brain with fu,brain would allow estimation of the unbound intracellular-to-extracellular concentration ratio (Kp,uu,cell). It is essential to emphasize that, in terms of predicting Cu,brainISF or Kp,uu,brain, rank ordering of compounds with respect to Vu,brain is futile, since there is no causal relationship.
Complex evaluation of the abovementioned neuropharmacokinetic parameters gives insight to drug distribution in the brain. For instance, analogue of γ-aminobutyric acid gabapentin has Kp,brain equal to 0.64 [26]. However, after correction of Kp,brain for brain tissue uptake (using Vu,brain derived from the brain slice method) and plasma protein binding (using fu,plasma) the BBB net flux was estimated as a 0.14 meaning that only 14% of unbound drug in plasma is passing the BBB. Moreover, after passing BBB gabapentin (substrate to the large neutral amino acid transporter) tends to accumulate in the cells as it could be judged from Kp,uu,cell equal to 4.55 [6].

| SMILES | Kp,uu,cell (unbound intracellular-to-extracellular concentration ratio) [1] | Vu,brain [2] | Kp,brain (total brain-to-plasma concentration ratio) [3] | Vu,brain [4] | Kp uu [5] |
| --- | --- | --- | --- | --- | --- |
| NCC1(CC(=O)O)CCCCC1 [Gabapentin] | 4.55 | 4.49 (0.29) ml·g brain^-1 | 0.64 | 4.22 (0.93) ml·g brain^-1 | 0.14 |
| Fc1ccc([C@@H]2CCNC[C@H]2COc2ccc3c(c2)OCO3)cc1 [Paroxetine] |  | 714 (72) ml·g brain^-1 |  | 596 (97) ml·g brain^-1 |  |
| CC(=O)O[C@@]12CO[C@@H]1C[C@H](O)[C@@]1(C)C(=O)[C@H](O)C3=C(C)[C@@H](OC(=O)[C@H](O)[C@@H](NC(=O)OC(C)(C)C)c4ccccc4)C[C@@](O)([C@@H](OC(=O)c4ccccc4)[C@H]21)C3(C)C [Docetaxel] |  | 777 (217) ml·g brain^-1 |  | 796 (177) ml·g brain^-1 |  |
| COc1ccc2c(c1)c(CC(=O)O)c(C)n2C(=O)c1ccc(Cl)cc1 [Indomethacin] |  | 14.1 (1.8) ml·g brain^-1 |  | 12.0 (1.8) ml·g brain^-1 |  |
| CSc1ccc2c(c1)N(CCC1CCCCN1C)c1ccccc1S2 (stereo not shown) [Thioridazine] |  | 2650 (232) ml·g brain^-1 |  | 1930 (170) ml·g brain^-1 |  |
